Target: GPR17 (Homo sapiens, UniProt Q13304)
Test: Calcium mobilization functional assay (GPR17 Ca2+ assay)
Assay type: cell-based
Set-up: host or cells: Flp-In T-REx CHO
Settings: CHO hGPR17 cells, inhibition of 50 nM MDL29,951, Calcium 5 dye, FLIPR; read-out: Ca2+ assay pIC50 (converted)
Procedure: Flp-In T-REx CHO cells stably expressing human GPR17 receptor (CHO hGPR17) from Evi Kostenis' lab (Bonn University, Germany) were cultured at 37° C. in a humidified atmosphere of 5% CO2. Cells were grown in DMEM with Nutrient Mixture F-12 supplemented with hygromycin B (500 μg/mL) and blasticidin (30 μg/mL). Expression from the Flp-In locus was induced by treatment with doxycycline (1 μg/mL) for 16-20 h prior assays.
GPR17 is a G-protein coupled receptor. GPR17 activation triggers Gq-type G-protein signaling resulting in endoplasmic reticulum calcium (Ca^2+) stores release in cytosol which can be measured using Calcium 5 dye, a fluorescent indicator dye of cytosolic Ca^2+ levels. All Examples were tested in GPR17 Ca^2+ assay to determine (screen) their GPR17 modulating activity.
CHO hGPR17 were defrosted and seeded at a density of 20,000 cells per well into black 384-well plates with clear bottom. Cells were incubated overnight at 37° C. in a humidified atmosphere of 5% CO2. Sixteen to twenty hours after seeding, CHO hGPR17 were loaded for 60 min with Calcium 5 dye, a cytosolic Ca^2+ indicator fluorescent dye, according to manufacturer's instructions. Fluorescent signal relative to cytosolic Ca^2+ concentration was recorded over time at room temperature in FLIPR Tetra reader. […] Then, 50 nM MDL29,951, a GPR17 agonist, was added to the cells. Inhibitory effects of varying concentrations test compounds were measured and resulting plC50s were determined. […] Analysis and curve fitting were performed in ActivityBase XE using XLfit 4-parameter logistic equation y=A+((B−A)/(1+((C/x)^D))) where A, B, C and D stand for minimum y, maximum y, IC50 and slope, respectively.
The activities of the Example compounds tested are depicted in the table in Section B2B below. The activity ranges A, B and C refer to plC50 values in the Ca^2+ assay as follows: “A”: plC50<7.5, “B”: plC50 7.5<x≤ 8.5, “C”: plC50>8.5

GPR17, sequence (Q13304 whole entry): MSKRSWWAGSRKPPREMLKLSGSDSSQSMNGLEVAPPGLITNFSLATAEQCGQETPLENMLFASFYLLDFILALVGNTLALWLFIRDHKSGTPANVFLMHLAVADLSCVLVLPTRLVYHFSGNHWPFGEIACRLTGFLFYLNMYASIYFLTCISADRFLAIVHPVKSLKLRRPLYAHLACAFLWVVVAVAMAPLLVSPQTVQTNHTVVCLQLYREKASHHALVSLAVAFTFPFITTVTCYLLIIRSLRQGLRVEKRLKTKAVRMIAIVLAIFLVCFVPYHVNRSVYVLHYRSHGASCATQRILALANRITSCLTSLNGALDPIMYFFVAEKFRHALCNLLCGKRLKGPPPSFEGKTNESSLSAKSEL

Row | IC50 | SMILES
1 | > 31.6 nM | COc1cccc(NS(=O)(=O)c2c[nH]c3cc(Cl)ccc23)n1 [Compound I-58, 6-chloro-N-(6-methoxypyridin-2-yl)-1H-indole-3-sulfonamide]
2 | > 31.6 nM | N#Cc1ccc(NS(=O)(=O)c2c[nH]c3cc(Cl)ccc23)nc1 [Compound I-61, 6-chloro-N-(5-cyanopyridin-2-yl)-1H-indole-3-sulfonamide]
3 | > 31.6 nM | O=S(=O)(Nc1ccc(F)cn1)c1c[nH]c2cc(Cl)ccc12 [Compound I-62, 6-chloro-N-(5-fluoropyriidn-2-yl)-1H-indole-3-sulfonamide]
4 | > 31.6 nM | COc1ccc2c(S(=O)(=O)Nc3cccc4nsnc34)c[nH]c2c1 [Compound I-64, N-(2,1,3-benzothiadiazol-4-yl)-6-methoxy-1H-indole-3-sulfonamide]
5 | > 31.6 nM | N#Cc1ccc2c(S(=O)(=O)Nc3cc4c(cc3F)OC(F)(F)O4)c[nH]c2c1 [Compound I-68, 6-cyano-N-(2,2,6-trifluoro-1,3-benzodioxol-5-yl)-1H-indole-3-sulfonamide]
6 | > 31.6 nM | O=S(=O)(Nc1cc2c(cc1F)OC(F)(F)O2)c1c[nH]c2c1ccc1cccnc12 [Compound I-70, N-(2,2,6-trifluoro-1,3-benzodioxol-5-yl)-1H-pyrrolo[3,2-h]quinoline-3-sulfonamide]
7 | > 31.6 nM | COc1ccc2c(S(=O)(=O)Nc3cc4c(cc3F)OC(F)(F)O4)c[nH]c2c1 [Compound I-71, 6-methoxy-N-(2,2,6-trifluoro-1,3-benzodioxol-5-yl)-1H-indole-3-sulfonamide]
8 | > 31.6 nM | COc1ccc2c(S(=O)(=O)Nc3cccc4c3OC(F)(F)O4)c[nH]c2c1 [Compound I-72, N-(2,2-difluoro-1,3-benzodioxol-4-yl)-6-methoxy-1H-indole-3-sulfonamide]
9 | > 31.6 nM | O=S(=O)(Nc1cccc2nsnc12)c1c[nH]c2c3c(ccc12)CCC3 [Compound I-74]
10 | > 31.6 nM | N#Cc1ccc2c(S(=O)(=O)Nc3cc(F)c(F)cc3F)c[nH]c2c1 [Compound I-75, 6-cyano-N-(2,4,5-trifluorophenyl)-1H-indole-3-sulfonamide]
11 | > 31.6 nM | N#Cc1ccc(NS(=O)(=O)c2c[nH]c3ncc(Cl)cc23)cc1 [Compound I-77, 5-chloro-N-(4-cyanophenyl)-1H-pyrrolo[2,3-b]pyridine-3-sulfonamide]
12 | > 31.6 nM | O=S(=O)(Nc1cc(F)ccc1F)c1c[nH]c2ncc(I)cc12 [Compound I-81, N-(2,5-difluorophenyl)-5-iodo-1H-pyrrolo[2,3-b]pyridine-3-sulfonamide]
13 | > 31.6 nM | O=S(=O)(Nc1ccc(F)cc1F)c1c[nH]c2ncc(I)cc12 [Compound I-82, N-(2,4-difluorophenyl)-5-iodo-1H-pyrrolo[2,3-b]pyridine-3-sulfonamide]
14 | > 31.6 nM | C#Cc1ccc(NS(=O)(=O)c2c[nH]c3nc(Cl)ccc23)cc1 [Compound I-84, 6-chloro-N-(4-ethynylphenyl)-1H-pyrrolo[2,3-b]pyridine-3-sulfonamide]
15 | > 31.6 nM | O=S(=O)(Nc1ccc(F)cc1F)c1c[nH]c2nc(Cl)ccc12 [Compound I-86, 6-chloro-N-(2,4-difluorophenyl)-1H-pyrrolo[2,3-b]pyridine-3-sulfonamide]
16 | > 31.6 nM | O=S(=O)(Nc1cccc(F)c1Cl)c1c[nH]c2nc(Cl)ccc12 [Compound I-87, 6-chloro-N-(2-chloro-3-fluorophenyl)-1H-pyrrolo[2,3-b]pyridine-3-sulfonamide]
17 | > 31.6 nM | O=S(=O)(Nc1cc(F)cc(F)c1)c1c[nH]c2nc(Br)ccc12 [Compound I-89, 6-bromo-N-(3,5-difluorophenyl)-1H-pyrrolo[2,3-b]pyridine-3-sulfonamide]
18 | > 31.6 nM | O=S(=O)(Nc1cccc2c1OC(F)(F)O2)c1c[nH]c2ncc(I)cc12 [Compound I-99, N-(2,2-difluoro-1,3-benzodioxol-4-yl)-5-iodo-1H-pyrrolo[2,3-b]pyridine-3-sulfonamide]
19 | > 31.6 nM | O=S(=O)(Nc1ccc(I)cc1F)c1c[nH]c2ncc(I)cc12 [Compound I-101, N-(2-fluoro-4-iodophenyl)-5-iodo-1H-pyrrolo[2,3-b]pyridine-3-sulfonamide]
20 | 3.16 to 31.6 nM | O=S(=O)(Nc1cccc2c1OC(F)(F)O2)c1c[nH]c2nc(Br)ccc12 [Compound I-102, 6-bromo-N-(2,2-difluoro-1,3-benzodioxol-4-yl)-1H-pyrrolo[2,3-b]pyridine-3-sulfonamide]

Row | IC50 | SMILES
21 | > 31.6 nM | O=S(=O)(Nc1cc(F)c(F)cc1F)c1c[nH]c2ncc(I)cc12 [Compound I-103, 5-iodo-N-(2,4,5-trifluorophenyl)-1H-pyrrolo[2,3-b]pyridine-3-sulfonamide]
22 | > 31.6 nM | N#Cc1ccc(NS(=O)(=O)c2c[nH]c3ccccc23)c(F)c1 [Compound I-105, N-(4-cyano-2-fluorophenyl)-1H-indole-3-sulfonamide]
23 | > 31.6 nM | O=S(=O)(Nc1cccc2nsnc12)c1c[nH]c2ccccc12 [Compound I-106, N-(2,1,3-benzothiadiazol-4-yl)-1H-indole-3-sulfonamide]
24 | > 31.6 nM | O=S(=O)(Nc1cccc2nsnc12)c1c[nH]c2c(Br)cccc12 [Compound I-111, N-(2,1,3-benzothiadiazol-4-yl)-7-bromo-1H-indole-3-sulfonamide]
25 | > 31.6 nM | COc1cccc2c(S(=O)(=O)Nc3ccc(C#N)cc3F)c[nH]c12 [Compound I-115, N-(4-cyano-2-fluorophenyl)-7-methoxy-1H-indole-3-sulfonamide]
26 | > 31.6 nM | N#Cc1cc(F)c(NS(=O)(=O)c2c[nH]c3c(Cl)cccc23)cc1F [Compound I-117, 7-chloro-N-(4-cyano-2,5-difluorophenyl)-1H-indole-3-sulfonamide]
27 | > 31.6 nM | N#Cc1ccc(NS(=O)(=O)c2c[nH]c3cc(F)c(F)cc23)cc1 [Compound I-120, N-(4-cyanophenyl)-5,6-difluoro-1H-indole-3-sulfonamide]
28 | > 31.6 nM | Cc1ccc(NS(=O)(=O)c2c[nH]c3c2ccc2ccccc23)c(F)c1 [Compound I-121, N-(2-fluoro-4-methylphenyl)-1H-benzo[g]indole-3-sulfonamide]
29 | > 31.6 nM | COCc1ccc(NS(=O)(=O)c2c[nH]c3cc(Cl)ccc23)cc1 [Compound I-122, 6-chloro-N-(4-(methoxymethyl)phenyl)-1H-indole-3-sulfonamide]
30 | > 31.6 nM | O=S(=O)(Nc1ncccc1F)c1c[nH]c2cc(Cl)ccc12 [Compound I-128, 6-chloro-N-(3-fluoropyridin-2-yl)-1H-indole-3-sulfonamide]
31 | > 31.6 nM | O=S(=O)(Nc1ccc(Br)c2c1OC(F)(F)O2)c1c[nH]c2cc(Cl)ccc12 [Compound I-130, N-(7-bromo-2,2-difluoro-1,3-benzodioxol-4-yl)-6-chloro-1H-indole-3-sulfonamide]
32 | > 31.6 nM | O=S(=O)(Nc1c(F)ccc2nsnc12)c1c[nH]c2cc(Cl)ccc12 [Compound I-131, 6-chloro-N-(5-fluoro-2,1,3-benzothiadiazol-4-yl)-1H-indole-3-sulfonamide]
33 | 3.16 to 31.6 nM | O=S(=O)(Nc1cc2nsnc2cc1F)c1c[nH]c2nc(Cl)ccc12 [Compound I-144, 6-chloro-N-(6-fluoro-2,1,3-benzothiadiazol-5-yl)-1H-pyrrolo[2,3-b]pyridine-3-sulfonamide]
34 | 3.16 to 31.6 nM | N#Cc1cc(F)c(NS(=O)(=O)c2c[nH]c3ccccc23)cc1F [Compound I-145, N-(4-cyano-2,5-difluorophenyl)-1H-indole-3-sulfonamide]
35 | > 31.6 nM | COCCOc1ccc2c(S(=O)(=O)Nc3cc(F)c(C#N)cc3F)c[nH]c2c1 [Compound I-146, N-(4-cyano-2,5-difluorophenyl)-6-(2-methoxyethoxy)-1H-indole-3-sulfonamide]
36 | < 3.16 nM | N#Cc1cc(F)c(NS(=O)(=O)c2c[nH]c3c4c(ccc23)CCC4)cc1F [Compound I-148, N-(4-cyano-2,5-difluorophenyl)-1,6,7,8-tetrahydrocyclopenta[g]indole-3-sulfonamide]
37 | 3.16 to 31.6 nM | N#Cc1ccc(NS(=O)(=O)c2c[nH]c3c4c(ccc23)CCC4)cc1F [Compound I-149, N-(4-cyano-3-fluorophenyl)-1,6,7,8-tetrahydrocyclopenta[g]indole-3-sulfonamide]
38 | > 31.6 nM | O=S(=O)(Nc1cccc2nsnc12)c1c[nH]c2cc(OCc3ccccc3)ccc12 [Compound I-156, N-(2,1,3-benzothiadiazol-4-yl)-6-(benzyloxy)-1H-indole-3-sulfonamide]
39 | 3.16 to 31.6 nM | O=S(=O)(Nc1ccc2nsnc2c1)c1c[nH]c2c1ccc1ccccc12 [Compound I-157, N-(2,1,3-benzothiadiazol-5-yl)-1H-benzo[g]indole-3-sulfonamide]

Source: patent US12071404B2, “Aza (indole)-, benzothiophene-, and benzofuran-3-sulfonamides” (UCB Pharma GmbH, priority 2016, dated 2024)
